{"source": "patent EP0587374A2", "about": "“Sulfated sterol glycosides and their use against viral infections” (VIROSTAT (NA) NV, priority 1992, dated 1994)", "system": "HIV-1", "note": "Several values for one entry are separate records, joined by “and”; a condition that tells them apart may be missing. Identical values can stand only once. Like-named read-outs stand apart in the source and are kept apart here."}
{"smiles": "CC[C@H](CC[C@@H](C)[C@H]1CC[C@H]2[C@@H]3CC=C4C[C@@H](O[C@@H]5O[C@H](COS(=O)(=O)O)[C@@H](OS(=O)(=O)O)[C@H](OS(=O)(=O)O)[C@H]5OS(=O)(=O)O)CC[C@]4(C)[C@H]3CC[C@]12C)C(C)C", "note": "[BSSG-(SO₄⁻)₄, β-Sitosteryl β-D-glucoside tetra-sulphate]", "values": [{"measurement": "inhibition of P24 protein synthesis", "setting": "50 µg/mℓ, from a number of tests", "result": "80 - 100%"}, {"measurement": "concentration that inhibits P24 protein synthesis by 50%", "setting": "by extrapolation of the data in Table 3 (4 days), may vary with lymphocyte batch and HIV-1 titre", "result": 9, "unit": "µg/mL"}, {"measurement": "anti-HIV-1 effect (in words)", "setting": "in terms of P24 protein production, Tables 1-3", "result": "marked anti-HIV-1 effects"}, {"measurement": "% INHIBITION OF P24 PROTEIN PRODUCTION", "setting": "test concentration 0.78 µg/mℓ, duration 4 days", "result": 4, "unit": "%"}, {"measurement": "% INHIBITION OF P24 PROTEIN PRODUCTION", "setting": "test concentration 3.125 µg/mℓ, duration 4 days", "result": 27, "unit": "%"}, {"measurement": "% INHIBITION OF P24 PROTEIN PRODUCTION", "setting": "test concentration 10 µg/mℓ, duration 6 days", "result": 55, "unit": "%"}, {"measurement": "% INHIBITION OF P24 PROTEIN PRODUCTION", "setting": "test concentration 12.5 µg/mℓ, duration 4 days", "result": 65, "unit": "%"}, {"measurement": "% INHIBITION OF P24 PROTEIN PRODUCTION", "setting": "test concentration 25 µg/mℓ, duration 4 days", "result": "61% and 88%"}, {"measurement": "% INHIBITION OF P24 PROTEIN PRODUCTION", "setting": "test concentration 25 µg/mℓ, duration 6 days", "result": 91, "unit": "%"}, {"measurement": "% INHIBITION OF P24 PROTEIN PRODUCTION", "setting": "test concentration 50 µg/mℓ, duration 4 days", "result": "83% and 96%"}, {"measurement": "% INHIBITION OF P24 PROTEIN PRODUCTION", "setting": "test concentration 50 µg/mℓ, duration 6 days", "result": 100, "unit": "%"}, {"measurement": "% INHIBITION OF P24 PROTEIN PRODUCTION", "setting": "test concentration 100 µg/mℓ, duration 4 days", "result": 99, "unit": "%"}]}
